The target of test [1] is rat orexin 1 receptor (Rattus norvegicus, UniProt P56718). The experiment in a line: Rat orexin 1 receptor radioligand binding (competitive). The settings on record: HEK293 cells stably expressing rat orexin 1 receptor; 4 nM radioligand; averages of 2-20 runs; read-out: rOX1 Ki. How it is done:
The in vitro affinity of the compounds of the invention for the rat/human orexin 1 and human orexin 2 receptors was determined by competitive radioligand binding using [^3H](1-(5-(2-fluoro-phenyl)-2-methyl-thiazol-4-yl)-1-((S)-2-(5-phenyl-(1,3,4)oxadiazol-2-ylmethyl)-pyrrolidin-1-yl)-methanone) (Langmead et al., 2004) and [^3H]EMPA (n-ethyl-2[96-methoxy-pyridin-3-yl)-(toluene-2-sulfonyl)-amino]-N-pyridin-3-ylmethyl acetamide), respectively (Langmead et al., 2004, British Journal of Pharmacology 141:340-346; Malherbe et al., 2004, British Journal of Pharmacology 156:1326-41).
Data are analyzed using pc-Sandy macro and graphed on Graphpad Prism 5. For analysis, each concentration point is averaged from triplicate values and the averaged values are plotted on Graphpad Prism. The IC50 was determined by applying the following equation (GraphPad Prism 5.0, San Diego) for one site competition where X=log (concentration) and Y=specific binding. Top denotes the total [^3H]— (1-(5-(2-fluoro-phenyl)-2-methyl-thiazol-4-yl)-1-((S)-2-(5-phenyl-(1,3,4)oxadiazol-2-ylmethyl)-pyrrolidin-1-yl)-methanone) binding, bottom denotes the nonspecific [^3H]— (1-(5-(2-fluoro-phenyl)-2-methyl-thiazol-4-yl)-1-((S)-2-(5-phenyl-(1,3,4)oxadiazol-2-ylmethyl)-pyrrolidin-1-yl)-methanone) binding. Graphpad Prism calculates Ki value from IC50 and the pre-determined Kd values for [^3H]— (1-(5-(2-fluoro-phenyl)-2-methyl-thiazol-4-yl)-1-((S)-2-(5-phenyl-(1,3,4)oxadiazol-2-ylmethyl)-pyrrolidin-1-yl)-methanone) and [^3H]-EMPA. The Ki for each compound is then uploaded into 3DX. Each run comprises individual compounds in triplicate. The data in Table 1 and Table 2 represent averages from between 2-20 runs
Rat and Human Orexin 1 Receptor Radioligand Binding Studies
Human Embryonic Kidney 293 cells (HEK293) stably expressing rat orexin 1 receptor (Genebank accession number NM_001525) or Chinese ovary cells (CHO) stably expressing human orexin 1 receptor (Genebank accession number […]) were grown to confluency in DMEM (Hyclone, cat # SH30022), 10% FBS, 1× Pen/Strep, 1× sodium pyruvate, 10 mM HEPES, 600 μg/mL G418 and DMEM/F12 (Gibco, Cat #11039), 10% FBS, 1× Pen/Strep, 600 μg/mL G418 media, respectively on 150 cm^2 tissue culture plates, washed with 5 mM EDTA in PBS (HyClone Dulbecco's Phosphate Buffered Saline 1× with Calcium and Magnesium, Cat # SH30264.01, hereafter referred to simply as PBS) and scraped into 50 ml tubes. After centrifugation (2K×G, 5 min at 4° C.), the supernatant was aspirated and the pellets frozen and stored at −80° C. Cells were resuspended in PBS in the presence of 1 tablet of protease inhibitor cocktail (Roche, Cat. #11836145001) per 50 mL. […] Competition binding experiments in 96 well polypropylene plates were performed using [^3H]— (1-(5-(2-fluoro-phenyl)-2-methyl-thiazol-4-yl)-1-((S)-2-(5-phenyl-(1,3,4)oxadiazol-2-ylmethyl)-pyrrolidin-1-yl)-methanone) (Moraveck Corporation, specific activity=35.3 Ci/mmol), diluted to a 10 nM concentration in PBS (4 nM final). Compounds were solubilized in 100% DMSO (Acros Organics, Cat. #61042-1000) and tested over a range of 7 concentrations (from 0.1 nM to 10 μM). The final concentration of DMSO in the reactions is equal to or less than 0.1%. Total and nonspecific binding was determined in the absence and presence of 10 μM almorexant. The total volume of each reaction is 200 μL (20 μL of diluted compounds, 80 μL of [^3H]— (1-(5-(2-fluoro-phenyl)-2-methyl-thiazol-4-yl)-1-((S)-2-(5-phenyl-(1,3,4)oxadiazol-2-ylmethyl)-pyrrolidin-1-yl)-methanone) diluted in PBS and 100 μL of the cell suspension). Reactions were run for 60 min at room temperature and terminated by filtration through GF/C filter plates (PerkinElmer, Cat. #6005174) presoaked in 0.3% polyethylenimine using the cell harvester (PerkinElmer Filtermate). The plates were washed 3 times by aspirating 30 ml PBS through the plates. Plates were dried in 55° C. oven for 60 min, scintillation fluid was added, and the radioactivity was counted on a Topcount (Packard). […]

Test [2] addresses human orexin 2 receptor (Homo sapiens (Human), UniProt O43614). The test is described as follows: Human orexin 2 receptor radioligand binding ([3H]-EMPA competition). The settings on record: HEK293 stably expressing human orexin 2 receptor; 2 nM [3H]-EMPA; averages of 2-20 runs; read-out: hOX2 Ki. In short, it runs like this:
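Membranes-free whole HEK293 cells stably expressing human OX2 receptor incubated with [3H]-EMPA and compound (7 concentrations, 0.1 nM–10 μM, ≤0.1% DMSO) for 60 min at room temperature; nonspecific binding with 10 μM almorexant. Filtration and scintillation counting; one-site IC50 converted to Ki using predetermined Kd, triplicates averaged over 2-20 runs.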

In general, Ki refers to the equilibrium dissociation constant of an inhibitor or competing ligand from its target.

human orexin 2 receptor, sequence (O43614 whole entry): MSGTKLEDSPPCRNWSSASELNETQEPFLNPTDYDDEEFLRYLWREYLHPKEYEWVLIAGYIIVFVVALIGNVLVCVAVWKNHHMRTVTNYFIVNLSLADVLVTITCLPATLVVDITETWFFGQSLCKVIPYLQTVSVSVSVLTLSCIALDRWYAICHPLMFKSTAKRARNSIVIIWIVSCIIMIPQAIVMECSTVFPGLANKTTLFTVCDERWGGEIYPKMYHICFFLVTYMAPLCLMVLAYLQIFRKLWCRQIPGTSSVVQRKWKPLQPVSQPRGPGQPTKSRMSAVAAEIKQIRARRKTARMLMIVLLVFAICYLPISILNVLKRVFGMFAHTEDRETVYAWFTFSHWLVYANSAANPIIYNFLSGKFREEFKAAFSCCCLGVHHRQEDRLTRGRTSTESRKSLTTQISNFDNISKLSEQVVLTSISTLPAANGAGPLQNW

`C[C@@H]1[C@H]2C[C@@H](Oc3ccc(C(F)(F)F)cn3)[C@H](C2)N1C(=O)c1ccccc1-c1ncc(OCCF)cn1` [Example 169, [2-[5-(2-fluoroethoxy)pyrimidin-2-yl]phenyl]-[(1R,2R,4S,5R)-2-methyl-5-[[5-(trifluoromethyl)-2-pyridyl]oxy]-3-azabicyclo[2.2.1]heptan-3-yl]methanone]: the inhibition constant (Ki) in test [1] is 52 nM; in test [2], 3940 nM.

In the case of `C[C@@H]1[C@H]2C[C@@H](Oc3ccc(C(F)(F)F)cn3)[C@H](C2)N1C(=O)c1cc2ccccc2nc1OCCF` [Example 205, [2-(2-fluoroethoxy)-3-quinolyl]-[(1R,2R,4S,5R)-2-methyl-5-[[5-(trifluoromethyl)-2-pyridyl]oxy]-3-azabicyclo[2.2.1]heptan-3-yl]methanone], the inhibition constant (Ki) in test [1] was found to be 22 nM; in test [2] it was 5400 nM.

As to `C[C@@H]1[C@H]2C[C@@H](Oc3ccc(C(F)(F)F)c(F)n3)[C@H](C2)N1C(=O)c1ccccc1-c1ncccn1` [Example 219, (2-(pyrimidin-2-yl)phenyl)((1S,3R,4R,6R)-3-methyl-6-((6-fluoro-5-(trifluoromethyl)pyridin-2-yl)oxy)-2-azabicyclo[2.2.1]heptan-2-yl)methanone], the inhibition constant (Ki) in test [1] is 4 nM; in test [2] it was 1010 nM.

Consider `Cc1ccc(-c2ncccn2)c(C(=O)N2[C@H](C)[C@H]3C[C@@H](Oc4ccc(C(F)F)cn4)[C@@H]2C3)n1` [Example 182, [(1R,2R,4S,5R)-5-[[5-(difluoromethyl)-2-pyridyl]oxy]-2-methyl-3-azabicyclo[2.2.1]heptan-3-yl]-(6-methyl-3-pyrimidin-2-yl-2-pyridyl)methanone], for which the Ki in test [1] is 11 nM; in test [2] it was 95 nM.

For `C[C@@H]1[C@H]2C[C@@H](Oc3ccc(C(F)(F)F)nc3)[C@H](C2)N1C(=O)c1ncccc1-n1nccn1` (relative stereo) [Example 37, (3-(2H-1,2,3-triazol-2-yl)pyridin-2-yl)((1S*,3R*,4R*,6R*)-3-methyl-6-((6-(trifluoromethyl)pyridin-3-yl)oxy)-2-azabicyclo[2.2.1]heptan-2-yl)methanone], the inhibitory constant (Ki) in test [1] was 3720 nM; in test [2], above 10000 nM.

On to `[2H]C([2H])([2H])[C@]1([2H])[C@H]2C[C@@H](Oc3ccc(C(F)(F)F)cn3)[C@H](C2)N1C(=O)c1cccc(F)c1-n1nccn1` [Example 164, [(1R,2R,4S,5R)-2-deuterio-2-(trideuteriomethyl)-5-[[5-(trifluoromethyl)-2-pyridyl]oxy]-3-azabicyclo[2.2.1]heptan-3-yl]-[3-fluoro-2-(triazol-2-yl)phenyl]methanone], for which the Ki in test [1] stood at 5 nM; in test [2], 565 nM.

Regarding `CCOC(=O)[C@@H]1[C@H]2C[C@@H](Oc3ccc(C(F)(F)F)cn3)[C@H](C2)N1C(=O)c1nc(C)ccc1-n1nccn1` [Example 192, ethyl (1R,2S,4S,5R)-3-[6-methyl-3-(triazol-2-yl)pyridine-2-carbonyl]-5-[[5-(trifluoromethyl)-2-pyridyl]oxy]-3-azabicyclo[2.2.1]heptane-2-carboxylate], the Ki amounted to 53 nM in test [1] and 795 nM in test [2].

Take `CC1C2CC(Oc3ccc(C(F)(F)F)cn3)C(C2)N1C(=O)c1ccccc1-c1ncc(F)cn1` (single isomer, unassigned) [Example 19A, (2-(5-fluoropyrimidin-2-yl)phenyl)((1R*,3S*,4S*,6S*)-3-methyl-6-((5-(trifluoromethyl)pyridin-2-yl)oxy)-2-azabicyclo[2.2.1]heptan-2-yl)methanone]: the inhibitory constant (Ki) in test [1] amounted to 746 nM.

Regarding `O=C(c1cc(F)ccc1-c1ncc(F)cn1)N1[C@H](CO)[C@@H]2CC[C@H]1[C@H](Oc1ccc(C(F)(F)F)cn1)C2` [Example 178, [5-fluoro-2-(5-fluoropyrimidin-2-yl)phenyl]-[(1R,2S,4S,5R)-2-(hydroxymethyl)-5-[[5-(trifluoromethyl)-2-pyridyl]oxy]-3-azabicyclo[2.2.2]octan-3-yl]methanone], the inhibition constant (Ki) is 1100 nM in test [1] and above 10000 nM in test [2].

Regarding `C[C@@H]1[C@H]2C[C@@H](Oc3ccc(C(F)(F)F)cn3)[C@H](C2)N1C(=O)c1c(OCCF)ccc2cccnc12` [Example 206, (7-(2-fluoroethoxy)quinolin-8-yl)((1S,3R,4R,6R)-3-methyl-6-((5-(trifluoromethyl)pyridin-2-yl)oxy)-2-azabicyclo[2.2.1]heptan-2-yl)methanone], the inhibitory constant (Ki) was determined as 7.4 nM in test [1] and 286 nM in test [2].

For the compound `Cc1ccc(-n2nccn2)c(C(=O)N2[C@H](C)[C@H]3C[C@@H](Oc4ccc(C(F)(F)F)nc4)[C@@H]2C3)n1` (relative stereo) [Example 40, (6-methyl-3-(2H-1,2,3-triazol-2-yl)pyridin-2-yl)((1S*,3R*,4R*,6R*)-3-methyl-6-((6-(trifluoromethyl)pyridin-3-yl)oxy)-2-azabicyclo[2.2.1]heptan-2-yl)methanone], the Ki was 544 nM in test [1] and above 10000 nM in test [2].

In the case of `C[C@@H]1[C@H]2C[C@@H](Oc3ccc(C(F)(F)F)cn3)[C@H](C2)N1C(=O)c1cccc(-c2ccc(F)cc2)c1` [Example 36, (4′-fluoro-[1,1′-biphenyl]-3-yl)((1S,3R,4R,6R)-3-methyl-6-((5-(trifluoromethyl)pyridin-2-yl)oxy)-2-azabicyclo[2.2.1]heptan-2-yl)methanone], the Ki is 845 nM in test [1] and above 10000 nM in test [2].

As to `COC[C@@H]1[C@@H]2CC[C@@H]([C@H](Oc3ccc(C(F)(F)F)cn3)C2)N1C(=O)c1ccccc1-c1ncccn1` [Example 181, [(1R,2S,4S,5R)-2-(methoxymethyl)-5-[[5-(trifluoromethyl)-2-pyridyl]oxy]-3-azabicyclo[2.2.2]octan-3-yl]-(2-pyrimidin-2-ylphenyl)methanone], the Ki in test [1] was 87 nM; in test [2] it was above 10000 nM.

Take `C[C@@H]1[C@H]2C[C@@H](Oc3ccc(C(F)(F)F)cn3)[C@H](C2)N1C(=O)c1ccccc1-c1cnc(F)cn1` [Example 170, [2-(5-fluoropyrazin-2-yl)phenyl]-[(1R,2R,4S,5R)-2-methyl-5-[[5-(trifluoromethyl)-2-pyridyl]oxy]-3-azabicyclo[2.2.1]heptan-3-yl]methanone]: the Ki in test [1] was 9 nM; in test [2] it was 1600 nM.

In the case of `C[C@@H]1[C@H]2C[C@@H](Oc3ccc(C(F)(F)F)cn3)[C@H](C2)N1C(=O)c1ccc(OCCF)cc1-n1nccn1` [Example 202, [4-(2-fluoroethoxy)-2-(triazol-2-yl)phenyl]-[(1R,2R,4S,5R)-2-methyl-5-[[5-(trifluoromethyl)-2-pyridyl]oxy]-3-azabicyclo[2.2.1]heptan-3-yl]methanone], the Ki was 196 nM in test [1] and above 10000 nM in test [2].

(Values after US9611262B2, “Substituted 2-azabicycles and their use as orexin receptor modulators” (JANSSEN PHARMACEUTICA NV, priority 2014, dated 2017).)
